Measured values: US20250388604A1, “Compounds and Their Use as PDE4 Activators” (Mironid Limited, priority 2022, published 2025)

What follows are compounds tested on m-IMCD3 cells (assay: Inhibition of PGE2-stimulated in vitro cyst formation in m-IMCD3 cells). Conditions: 3 μM; mean cyst area, 100% for (DMSO + PGE2) and 0% for DMSO control; 6 days of culture.
Assay type: cell-based, mouse
Experimental: HEK 293 and MDCK cells (Public Health England, Cell Culture Collections) were maintained in Dulbecco's Modified Eagle's Medium (DMEM) supplemented with 10% (v/v) fetal bovine serum (FBS) (Seralab), 2 mM L-glutamine and 100 U/mL penicillin streptomycin cocktail (ThermoFisher); termed complete media. Clonal HEK 293 cell lines were maintained in complete media supplemented with 0.6 mg/ml G418 (Enzo Life Sciences). Mouse inner medullary collecting duct (m-IMCD3) cells [American Type Culture Collection (ATCC)] were maintained in media consisting of DMEM/Hams F-12 50/50 Mix (DMEM F12; Corning) supplemented with penicillin streptomycin cocktail (100 U/mL) and FBS (10% v/v) (DMEM F12-10% FBS).
The mouse Inner Medullary Collecting Duct cell line (m-IMCD3) spontaneously forms cystic spheroids in 3D culture with a Type 1 collagen/Matrigel extracellular matrix. This process can be stimulated with agents which raise intracellular cAMP and is used as an in vitro model for the formation of cystic structures in the kidneys of patients with ADPKD.
Rat Collagen I (Fisher Scientific) is prepared on ice by neutralising with 1M NaOH and diluting with a 2× volume of DMEM/F12+10% FBS. This is mixed 1:1.1 with ice cold Matrigel (Corning) for coating plates (coating mix), and 1:0.93 with Matrigel for cell plating (plating mix).
The assay is conducted in the wells of a 96-well plate culture dish using a total volume of 130 μL of collagen/Matrigel/DMEM F12-10% FBS suspension in growth media for each matrix plug per individual well. Initially, 30 μL of collagen/Matrigel/DMEM F12-10% FBS (coating mix) is added into the well of a 96 well plate and the collagen is set to a gel by incubating at 37° C. for at least 15 minutes. A second layer of 100 μL collagen/Matrigel suspension (plating mix) containing m-IMCD3 cells (2.75×10^6 m-IMCD3 cells per 96-well plate) is layered over the coating mix and the collagen/Matrigel/cell mix again set to a gel by incubating at 37° C. Cell cultures are maintained at 37° C. in an atmosphere of 5% CO2, 95% air.
Between 18 and 24 h after plating, test compound(s) as DMSO stock solutions [0.1% (v/v) final DMSO concentration] and PGE2 (100 nM final concentration) in DMEM F12-10% FBS are added in quadruplicate wells per condition. Media, together with the test compound and PGE2 are replenished after 2 or 3 days. After 6 days of culture z stack images of the wells are captured using the Nikon Eclipse Ti2-E microscope. Nikon General Analysis software is used to measure the following parameters in each well: the mean cyst area, the number of cysts, and the total cyst area.
PDE4 long form activators inhibited in vitro cyst formation in m-IMCD3 cells. Data are shown in Table 4 as mean cyst area (%), compared to 100% for (DMSO+PGE2) and 0% for DMSO control.
In the case of `CC(C(=O)N1CCc2nc(N3C4CCC3CNC4)sc2C1)C(C)(C)C` (single isomer, unassigned) [Example 158, 1-(2-(3,8-diazabicyclo[3.2.1]octan-8-yl)-6,7-dihydrothiazolo[5,4-c]pyridin-5(4H)-yl)-2,3,3-trimethylbutan-1-one], the “% Cyst area after incubation with 3 μM test compound” value was 7%.

Same assay, conditions: Mus musculus, mIMCD3, 144 h, 3 μM; mean cyst area, 100% for (DMSO + PGE2) and 0% for DMSO control; 6 days of culture; read-out: % Cyst area after incubation with 3 μM test compound
`Cn1c(C(=O)N2CCc3nc(N4C5CCC4CNC5)sc3C2)cc2ccccc21` [Example 189, (2-(3,8-diazabicyclo[3.2.1]octan-8-yl)-6,7-dihydrothiazolo[5,4-c]pyridin-5(4H)-yl)(1-methyl-1H-indol-2-yl)methanone] gave an activity at 3 µM of -1%.
For `COC(C(=O)N1CCc2nc(N3C4CCC3CNC4)sc2C1)C1(C)CCCC1` (stereo not shown) [Example 249, 1-(2-(3,8-diazabicyclo[3.2.1]octan-8-yl)-6,7-dihydrothiazolo[5,4-c]pyridin-5(4H)-yl)-2-methoxy-2-(1-methylcyclopentyl)ethan-1-one], the activity at 3 µM was -5%.
With `O=C(c1ccc(Cl)nc1)N1CCc2nc(N3C4CCC3CNC4)sc2C1` [Example 221, (2-(3,8-diazabicyclo[3.2.1]octan-8-yl)-6,7-dihydrothiazolo[5,4-c]pyridin-5(4H)-yl)(6-chloropyridin-3-yl)methanone] the activity at 3 µM was 0%.
Compound `O=C([C@H](O)C1CCCCC1)N1CCc2nc(N3C4CCC3CNC4)sc2C1` [Example 177, (2R)-1-(2-(3,8-diazabicyclo[3.2.1]octan-8-yl)-6,7-dihydrothiazolo[5,4-c]pyridin-5(4H)-yl)-2-cyclohexyl-2-hydroxyethan-1-one] has an activity at 3 µM of -2%.
For `Cc1cc(F)ccc1C(=O)N1CCc2nc(N3C4CCC3CNC4)sc2C1` [Example 216, (2-(3,8-diazabicyclo[3.2.1]octan-8-yl)-6,7-dihydrothiazolo[5,4-c]pyridin-5(4H)-yl)(4-fluoro-2-methylphenyl)methanone], the activity at 3 µM was -3%.
`O=C(c1nc2ccccc2o1)N1CCc2nc(N3C4CCC3CNC4)sc2C1` [Example 190, (2-(3,8-diazabicyclo[3.2.1]octan-8-yl)-6,7-dihydrothiazolo[5,4-c]pyridin-5(4H)-yl)(benzo[d]oxazol-2-yl)methanone] gave an activity at 3 µM of 1%.
`O=C(CC1CCCC1)N1CCc2nc(N3CCNC[C@@H]3CO)sc2C1` [Example 275, (R)-2-cyclopentyl-1-(2-(2-(hydroxymethyl)piperazin-1-yl)-6,7-dihydrothiazolo[5,4-c]pyridin-5(4H)-yl)ethan-1-one] was tested, and the activity at 3 µM was 19%.
`COCc1ccccc1C(=O)N1CCc2nc(N3C4CCC3CNC4)sc2C1` [Example 214, (2-(3,8-diazabicyclo[3.2.1]octan-8-yl)-6,7-dihydrothiazolo[5,4-c]pyridin-5(4H)-yl)(2-(methoxymethyl)phenyl)methanone] showed an activity at 3 µM of 54%.

Same assay, conditions: Mus musculus, mIMCD3, 144 h, 10 μM; mean cyst area, 100% for (DMSO + PGE2) and 0% for DMSO control; 6 days of culture; read-out: % Cyst area after incubation with 10 μM test compound
`COC1(CC(=O)N2CCc3nc(N4C5CCC4CNC5)sc3C2)CCCC1` [Example 134, 1-(2-(3,8-diazabicyclo[3.2.1]octan-8-yl)-6,7-dihydrothiazolo[5,4-c]pyridin-5(4H)-yl)-2-(1-methoxycyclopentyl)ethan-1-one] showed an activity at 10 µM of -4%.
For `O=C(CC1CCCC1)N1CCc2nc(N3CCN[C@@H](CO)C3)sc2C1` [Example 117, (R)-2-cyclopentyl-1-(2-(3-(hydroxymethyl)piperazin-1-yl)-6,7-dihydrothiazolo[5,4-c]pyridin-5(4H)-yl)ethan-1-one], the activity at 10 µM was 1%.
For `CN1CCN(c2nc3c(s2)CN(C(=O)CC2CCC(F)(F)CC2)CC3(C)C)CC1` [Example 104, 2-(4,4-difluorocyclohexyl)-1-(7,7-dimethyl-2-(4-methylpiperazin-1-yl)-6,7-dihydrothiazolo[5,4-c]pyridin-5(4H)-yl)ethan-1-one], the activity at 10 µM was 0%.
With `CN1CC2CCC(C1)N2c1nc2c(s1)CN(C(=O)COc1ccnc(F)c1)CC2` [Example 79, 2-((2-fluoropyridin-4-yl)oxy)-1-(2-(3-methyl-3,8-diazabicyclo[3.2.1]octan-8-yl)-6,7-dihydrothiazolo[5,4-c]pyridin-5(4H)-yl)ethan-1-one] the activity at 10 µM was -2%.
